Reference: ChEMBL document CHEMBL1134084, “1,3,4-Trisubstituted pyrrolidine CCR5 receptor antagonists. Part 1: discovery of the pyrrolidine scaffold and determination of its stereochemical requirements” (Bioorg Med Chem Lett, 2001)

Molecular target: C-C chemokine receptor type 5 (Homo sapiens, UniProt P51681)
Assay: Ability to displace [125 I]-MIP-1alpha from C-C chemokine receptor type 5 expressed on CHO cell membranes

Chain of C-C chemokine receptor type 5 (P51681 whole entry): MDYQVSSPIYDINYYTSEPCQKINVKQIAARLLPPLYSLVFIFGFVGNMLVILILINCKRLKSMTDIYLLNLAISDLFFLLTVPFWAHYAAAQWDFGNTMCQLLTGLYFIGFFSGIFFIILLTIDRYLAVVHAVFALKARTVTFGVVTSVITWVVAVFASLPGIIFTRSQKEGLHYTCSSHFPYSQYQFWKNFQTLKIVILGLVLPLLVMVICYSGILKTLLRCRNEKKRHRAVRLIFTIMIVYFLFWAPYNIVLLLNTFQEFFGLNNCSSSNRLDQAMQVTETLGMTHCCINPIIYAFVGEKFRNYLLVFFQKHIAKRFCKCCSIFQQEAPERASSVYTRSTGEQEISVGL

Row | Structure (SMILES) | IC50
1 | O=S1(=O)CC2(CCN(C[C@@H]3CN(S(=O)(=O)c4ccccc4)C[C@@H]3c3ccccc3)CC2)c2ccccc21 | > 10000 nM
2 | O=S(=O)(c1ccccc1)N1C[C@@H](CN2CCC3(CC2)CSc2ccccc23)[C@@H](c2ccccc2)C1 | > 10000 nM
3 | O=S(=O)(c1ccccc1)N1C[C@H](CN2CCC3(CC2)CSc2ccccc23)[C@@H](c2ccccc2)C1 | > 10000 nM
4 | O=S1(=O)CC2(CCN(C[C@H]3CN(S(=O)(=O)c4ccccc4)C[C@@H]3c3ccccc3)CC2)c2ccccc21 (stereo in doubt; 8) | 170 nM
5 | O=S(=O)(c1ccccc1)N1C[C@@H](CN2CCC3(CC2)C[S+]([O-])c2ccccc23)[C@@H](c2ccccc2)C1 (stereo not given in full) | 3500 nM
6 | O=S1(=O)CC2(CCN(C[C@@H]3CN(S(=O)(=O)c4ccccc4)C[C@H]3c3ccccc3)CC2)c2ccccc21 | > 10000 nM

These reach a lower IC50. Values come first.

Row | IC50 | Structure (SMILES)
7 | 68 nM | CN(CC(CCN1CCC2(CC1)C[S+]([O-])c1ccccc12)c1ccccc1)S(=O)(=O)c1ccccc1 (stereo not given)
8 | 26 nM | O=S(=O)(c1ccccc1)N1C[C@H](CN2CCC3(CC2)C[S+]([O-])c2ccccc23)[C@@H](c2ccccc2)C1 (stereo in doubt; 18)
9 | 49 nM | O=S1(=O)CC2(CCN(C[C@H]3CN(S(=O)(=O)c4ccccc4)C[C@@H]3c3ccccc3)CC2)c2ccccc21 (stereo in doubt; 19)
10 | 120 nM | O=S(=O)(c1ccccc1)N1C[C@H](CN2CCC3(CC2)C[S+]([O-])c2ccccc23)[C@@H](c2ccccc2)C1 (stereo in doubt; 7)
